Patent US12560054B2, “Use of carboxylates for carbon sequestration, improved oil recovery, and hydrogen storage and reproduction” (Board of Regents, The University of Texas System, priority 2021, dated 2026)
Read-outs that look alike come from different tables or passages of the source.

Columns and labels:
[1] = 347 K
Experimental: Contact Angle Experiments. Contact angle experiments were performed on calcite surfaces and Eagle Ford shale plates. […] After cutting the plates in the appropriate sizes, they were polished with a diamond grinder to result in a smooth surface. […] The pH values of the chemical solutions were measured before and after the experiment. […] The final pH level was adjusted to correspond to the glycine solution at the same concentration. […] Then, to start the experiment, the rock pieces were immersed in the solution and then oil droplets were placed at the bottom of the rock pieces. The solution chambers were put in the oven for equilibration. Then, images of the oil droplets were taken. A new oil droplet was placed after a certain number of days and the images were taken after equilibration. Contact angles reported in figures are the equilibrium contact angles. For example, if data is reported from day 7, that data is the final equilibrated contact angle of the droplet placed on day 7. Contact angles were measured from photos with the on-screen protractor software.

[2] = 337 K
Experimental: Contact Angle Experiments. Contact angle experiments were performed on calcite surfaces and Eagle Ford shale plates. […] After cutting the plates in the appropriate sizes, they were polished with a diamond grinder to result in a smooth surface.
RB was made first by adding salts and adjusting the total mass of the solution to 1 kg with deionized water. […] The final pH level was adjusted to correspond to the glycine solution at the same concentration. […]
After being aged in heavy oil for at least 3 weeks, the calcite or shale pieces were retrieved, and the excess oil was removed from the surfaces carefully. Then, to start the experiment, the rock pieces were immersed in the solution and then oil droplets were placed at the bottom of the rock pieces. The solution chambers were put in the oven for equilibration. Then, images of the oil droplets were taken. A new oil droplet was placed after a certain number of days and the images were taken after equilibration. Contact angles reported in figures are the equilibrium contact angles. For example, if data is reported from day 7, that data is the final equilibrated contact angle of the droplet placed on day 7. Contact angles were measured from photos with the on-screen protractor software.
A similar procedure was followed for another set of experiments with Eagle Ford shale plates.

[3] = pH measurements before and after the contact angle experiments with calcite; format: physicochemical; settings: room temperature; for pH After: after contact angle experiment with calcite; for pH Before: before contact angle experiment
Experimental: RB was made first by adding salts and adjusting the total mass of the solution to 1 kg with deionized water. […] For solutions with HCl, HCl was added to solutions of formate and acetate at room temperature while stirring slowly. […] After aqueous solutions were prepared and degassed, they were placed in an oven at the desired reservoir temperature (347 K for calcite and 337 for Eagle Ford shale).

[4] = with RB at reservoir and room temperatures
[5] = room temperature; cited from earlier work
[6] = Viscosity and density of formate solutions in NaCl+CaCl2 brine; format: physicochemical; settings: solutions in the brine at 25, 50 and 75 °C over a wide range of shear rates
Experimental: Viscosity Measurements. […] A double wall couette geometry was used for the measurement. The viscosity measurements were taken at 25, 50, and 75° C. The sodium formate solutions were prepared and allowed to equilibrate in an oven set at the target temperature.
For viscosity measurements at 50 and 75° C., the temperature of the holding cup was raised to the target temperature using the circulating bath before putting the solution into the rheometer's sample holding cup.

[7] = near-saturated 45% (% w/w) sodium formate in water, 20 °C; cited from earlier work

| Structure (SMILES) | contact angle reduction on calcite ([1]; without HCl, in RB) | final contact angle on Eagle Ford shale plates ([2]; 5 wt % in RB with HCl) | final contact angle on Eagle Ford shale plates ([2]; 5 wt % in RB without HCl) | pH After ([3]; 0.5 wt % in RB) | pH Before ([3]; 0.5 wt % in RB) | pH After ([3]; 1 wt % in RB) | pH Before ([3]; 1 wt % in RB) | pH After ([3]; 2.5 wt % in RB) | pH Before ([3]; 2.5 wt % in RB) | pH After ([3]; 5 wt % in RB) | pH Before ([3]; 5 wt % in RB) | aqueous stability [4] | contact angle on calcite ([1]; with HCl (pH adjusted to glycine level), in RB) | contact angle on calcite ([1]; without HCl, 0.5-5 wt % in RB) | contact angle on calcite ([1]; 2.5 and 5 wt % in RB, reached over time) | isoelectric point (pI) [5] | rheological behavior [6] | reported viscosity [7] |
| --- | --- | --- | --- | --- | --- | --- | --- | --- | --- | --- | --- | --- | --- | --- | --- | --- | --- | --- |
| CC(=O)[O-].[Na+] [acetate, Sodium Acetate] | did not significantly reduce the contact angle | approximately 60 ° | about 80 ° | 8.04 | 8.15 | 7.89 | 8.31 | 7.87 | 8.44 | 7.85 | 8.64 | confirmed |  |  |  |  |  |  |
| O=CO [formate] |  | approximately 60 ° | about 80 ° | 8.26 | 8.07 | 8.22 | 7.96 | 8.05 | 8.12 | 7.96 | 8.11 | confirmed | 50-60 ° | approximately 80 ° |  |  |  |  |
| NCC(=O)O [glycine, reference compound] |  |  | 60 ° | 7.94 | 6.68 | 7.73 | 6.42 | 7.53 | 6.24 | 7.62 | 6.10 |  |  |  | ~40 ° | 5.97 |  |  |
| O=C[O-].[Na+] [sodium formate] |  |  |  |  |  |  |  |  |  |  |  |  |  |  |  |  | Newtonian behavior | 9.5 cp |
